Assays:
CDK2 = CDK2 (Homo sapiens (Human), UniProt P24941); assay: CDK2 NanoBiT assay (HiBiT-tagged CDK2 degradation); type: cell-based; details: C-terminal HiBiT tag on CDK2, LgBiT, 24 hours; for Dmax: HEK293, HEK293 clonal line
Protocol: Example 145. NanoBiT Assay
A HEK293 clonal line with a CRISPR knock-in C-terminal HiBiT tag on CDK2 and stably expressing LgBiT protein was obtained from Promega (Madison, WI). Cells were plated at 5000 cells per well using Multiflo (BioTek) in 384-well white solid bottom plates (Corning, 3570BC) in 25 ul volume in DMEM media (DMEM, high glucose, HEPES, no phenol red (ThermoFisher Scientific, 21063029)) containing 10% FBS (Corning, 35-075-CV), 1% Peniciliin/Streptomycin ((ThermoFisher Scientific, 15140-122), and 1% Endurazine (Nano-Glo Endurazine Live Cell Substrate (Promega, N2571)). Cells were incubated for 16 hours at 37 C, 5% CO2. 75 nL of a compound at 30 μM were dosed into the plate using an Echo® 650 liquid handler (Labcyte). Cells were incubated at 37° C., 5% CO2 for 24 hours and then signal was read on a Pherastar FSX using “LUM plus” optic module.
Analysis was performed in Scinamic (Scinamic, Cambridge, MA). Luminescence response (R) was calculated by the formula: response=100*(S−N)/(P−N) where S is the signal of the well, N and P the mean negative and positive control values respectively of the same plate. The luminescence response was then fitted in Scinamic using a 3-parameter agonist logistic fit (hillslope=1, EC50>0, top/bottom unconstrained).

CRBN-DDB1 = CRBN-DDB1 (Homo sapiens (Human), UniProt Q96SW2); assay: CRBN HTRF assay (Cy5-Thalidomide probe displacement); type: binding; details: CRBN-DDB1 2.5 nM, Cy5-Thalidomide 100 nM, 30 min; Ki from geometric mean IC50 by Cheng-Prusoff
Protocol: Compound activity was monitored in a Homogenous Time-Resolved Fluorescence (HTRF) assay using 1-[5-({2-[2-(2-{[2-(2,6-dioxopiperidin-3-yl)-1,3-dioxo-2,3-dihydro-1H-isoindol-4-yl]oxy}acetamido)ethoxy]ethyl}carbamoyl)pentyl]-3,3-dimethyl-2-[(1E,3E)-5-[(2E)-1,3,3-trimethyl-5-sulfo-2,3-dihydro-1H-indol-2-ylidene]penta-1,3-dien-1-yl]-3H-indol-1-ium-5-sulfonate as a fluorescent probe. Biochemical assays were conducted in Greiner white 384 well HiBase plates (Cat. No 784075-25) in 10 μL total volume. A one pot detection solution of CRBN-DDB1 (2.5 nM), Anti-His Terbium Cryptate Gold (1×, PerkinElmer Cat. #: 61HI2TLB), and Cy5-Thalidomide (100 nM, Tenova Cat.: T52461) was prepared in 20 mM HEPES, 20 mM NaCl, 0.2 mM TCEP, 0.2 mM EDTA, and 0.005% Tween20 was dispensed to each assay plate. Compounds were stored in dry, ambient temperatures at 10 mM. A 10-point, 1:3 dilution series was prepared from 10 mM stock concentrations in Echo-compatible LDV plates. 10 nL of each compound dilution series was dispensed into assays wells using an Echo 650 (Labcyte inc. USA). 10 nL of 10 mM Lenalidomide was transferred into the active-control wells for the assay and 10 nL of DMSO was transferred into the neutral-control wells. The assay was then allowed to incubate for 30 min at ambient temperature after transferring compound. Plate measurements were taken on a Pherastar FSX (BMG Labtech, Germany) using the HTRF Red filter (Ex. 337 nm, em1: 620 nm, em2: 665 nm) (Flashes: 50, Integration time: 60-400 us, Z-height: 10 mm, Ratio-multiplier: 10,000). The HTRF signal was then subsequently normalized to the neutral and active controls. Analysis and IC50 values were derived using KNIME analytics (KNIME Zurich) transformation and fitting within Collaborative Drug Discovery (Collaborative Drug Discovery USA). Ki was derived from the geometric mean of the IC50 values using the Cheng-Prustoff transformation.

Chain of CRBN-DDB1 (Q96SW2 whole entry): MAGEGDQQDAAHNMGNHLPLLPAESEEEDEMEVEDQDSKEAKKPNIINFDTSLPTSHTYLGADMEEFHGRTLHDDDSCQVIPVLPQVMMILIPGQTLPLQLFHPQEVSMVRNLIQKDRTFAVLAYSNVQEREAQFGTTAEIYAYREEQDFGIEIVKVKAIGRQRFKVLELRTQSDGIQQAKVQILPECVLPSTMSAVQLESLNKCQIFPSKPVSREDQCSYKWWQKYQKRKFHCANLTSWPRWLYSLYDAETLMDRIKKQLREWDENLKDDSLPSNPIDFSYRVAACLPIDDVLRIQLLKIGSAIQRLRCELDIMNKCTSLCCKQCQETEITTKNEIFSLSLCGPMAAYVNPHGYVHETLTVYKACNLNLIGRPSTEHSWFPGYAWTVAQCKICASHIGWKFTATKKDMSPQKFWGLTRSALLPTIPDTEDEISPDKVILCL
Chain of CRBN-DDB1 (Q16531 whole entry partner): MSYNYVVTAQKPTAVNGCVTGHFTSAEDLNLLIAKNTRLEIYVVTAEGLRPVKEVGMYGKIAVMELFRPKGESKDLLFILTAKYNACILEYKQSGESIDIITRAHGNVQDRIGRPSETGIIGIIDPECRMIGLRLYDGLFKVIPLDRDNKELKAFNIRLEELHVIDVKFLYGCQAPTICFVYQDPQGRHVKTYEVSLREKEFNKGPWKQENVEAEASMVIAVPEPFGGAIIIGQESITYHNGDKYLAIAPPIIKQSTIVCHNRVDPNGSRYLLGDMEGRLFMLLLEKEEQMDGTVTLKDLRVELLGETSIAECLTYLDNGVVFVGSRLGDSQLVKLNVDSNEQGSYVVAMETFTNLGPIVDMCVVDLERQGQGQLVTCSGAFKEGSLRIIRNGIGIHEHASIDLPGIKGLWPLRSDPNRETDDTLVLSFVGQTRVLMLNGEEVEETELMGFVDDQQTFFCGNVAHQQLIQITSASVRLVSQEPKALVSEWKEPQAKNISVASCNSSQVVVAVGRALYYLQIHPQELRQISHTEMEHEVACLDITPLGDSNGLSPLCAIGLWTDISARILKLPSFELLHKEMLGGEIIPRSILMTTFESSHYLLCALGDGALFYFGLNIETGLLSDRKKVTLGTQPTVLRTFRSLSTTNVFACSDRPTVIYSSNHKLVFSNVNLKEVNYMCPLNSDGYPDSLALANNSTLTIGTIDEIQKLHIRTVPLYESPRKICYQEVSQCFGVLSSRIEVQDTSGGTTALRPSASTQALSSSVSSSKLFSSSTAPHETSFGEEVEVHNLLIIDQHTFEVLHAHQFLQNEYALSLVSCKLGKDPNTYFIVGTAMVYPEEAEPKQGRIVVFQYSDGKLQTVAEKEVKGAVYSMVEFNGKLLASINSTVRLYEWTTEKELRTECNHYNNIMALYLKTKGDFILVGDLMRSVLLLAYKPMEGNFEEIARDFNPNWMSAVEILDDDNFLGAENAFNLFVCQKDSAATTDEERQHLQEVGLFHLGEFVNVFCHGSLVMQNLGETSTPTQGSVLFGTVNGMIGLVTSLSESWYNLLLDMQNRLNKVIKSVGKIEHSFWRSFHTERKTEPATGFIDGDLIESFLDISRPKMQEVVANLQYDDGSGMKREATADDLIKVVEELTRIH

O=C1CCC(c2c(F)cc(N3CC(NC(=O)OCC4CC5(CCC5)C4)C3)cc2F)C(=O)N1 (centres unmarked) [Compound 1, spiro[3.3]heptan-2-ylmethyl (1-(4-(2,6-dioxopiperidin-3-yl)-3,5-difluorophenyl)azetidin-3-yl)carbamate]
Dmax (CDK2): > 80%

COc1c(N2CC(C)(NC(=O)OCC3CC4(CCC4)C3)C2)ccc(C2CCC(=O)NC2=O)c1F (centres unmarked) [Compound 2, spiro[3.3]heptan-2-ylmethyl (1-(4-(2,6-dioxopiperidin-3-yl)-3-fluoro-2-methoxyphenyl)-3-methylazetidin-3-yl)carbamate]
Ki (CRBN-DDB1): 100 to 1000 nM | Dmax (CDK2): 50 to 80%

O=C1CCC(c2c(F)cc(N3CC(NC(=O)OC[C@@H]4C[C@H]5CC[C@@H]4C5)C3)cc2F)C(=O)N1 (stereo partly drawn) [Compound 3, (1R,2R,4S)-bicyclo[2.2.1]heptan-2-ylmethyl (1-(4-(2,6-dioxopiperidin-3-yl)-3,5-difluorophenyl)azetidin-3-yl)carbamate]
Ki (CRBN-DDB1): ≤ 100 nM | Dmax (CDK2): > 80%

O=C1CCC(c2c(F)cc(N3CC(NC(=O)OC45CC(C(=O)c6ccccc6)(C4)C5)C3)cc2F)C(=O)N1 (centres unmarked) [Compound 4]
Ki (CRBN-DDB1): ≤ 100 nM | CDK2 NanoBiT Dmax (%) (CDK2; HEK293 clonal line): D (D represents Dmax value of >80%)

O=C1CCC(c2c(F)cc(N3CC(NC(=O)OC4CN(C(=O)N5Cc6ccccc6C5)C4)C3)cc2F)C(=O)N1 (centres unmarked) [Compound 5, 1-(isoindoline-2-carbonyl)azetidin-3-yl (1-(4-(2,6-dioxopiperidin-3-yl)-3,5-difluorophenyl)azetidin-3-yl)carbamate]
Ki (CRBN-DDB1): ≤ 100 nM | Dmax (CDK2): 50 to 80%

Cc1ccnc(N2CC(OC(=O)NC3CN(c4cc(F)c(C5CCC(=O)NC5=O)c(F)c4)C3)C2)c1 (centres unmarked) [Compound 6, 1-(4-methylpyridin-2-yl)azetidin-3-yl (1-(4-(2,6-dioxopiperidin-3-yl)-3,5-difluorophenyl)azetidin-3-yl)carbamate]
Dmax (CDK2): 50 to 80%

Cn1nccc1N1CC(OC(=O)NC2CN(c3cc(F)c(C4CCC(=O)NC4=O)c(F)c3)C2)C1 (centres unmarked) [Compound 7, 1-(1-methyl-1H-pyrazol-5-yl)azetidin-3-yl (1-(4-(2,6-dioxopiperidin-3-yl)-3,5-difluorophenyl)azetidin-3-yl)carbamate]
Ki (CRBN-DDB1): ≤ 100 nM | Dmax (CDK2): 10 to 50%

CN(C(=O)N1CC(OC(=O)NC2CN(c3cc(F)c(C4CCC(=O)NC4=O)c(F)c3)C2)C1)c1cccc(Cl)c1 (centres unmarked) [Compound 8, 1-((3-chlorophenyl)(methyl)carbamoyl)azetidin-3-yl (1-(4-(2,6-dioxopiperidin-3-yl)-3,5-difluorophenyl)azetidin-3-yl)carbamate]
Ki (CRBN-DDB1): ≤ 100 nM | Dmax (CDK2): > 80%

O=C1CCC(c2c(F)cc(N3CC(NC(=O)OC4CN(C(=O)N5CCc6ccccc65)C4)C3)cc2F)C(=O)N1 (centres unmarked) [Compound 9, 1-(indoline-1-carbonyl)azetidin-3-yl (1-(4-(2,6-dioxopiperidin-3-yl)-3,5-difluorophenyl)azetidin-3-yl)carbamate]
Ki (CRBN-DDB1): ≤ 100 nM | Dmax (CDK2): > 80%

Cc1cccc(N(C)C(=O)N2CC(OC(=O)NC3CN(c4cc(F)c(C5CCC(=O)NC5=O)c(F)c4)C3)C2)c1 (centres unmarked) [Compound 10, 1-(methyl(m-tolyl)carbamoyl)azetidin-3-yl (1-(4-(2,6-dioxopiperidin-3-yl)-3,5-difluorophenyl)azetidin-3-yl)carbamate]
Dmax (CDK2): > 80%

CN(C(=O)N1CC(OC(=O)NC2(C(F)(F)F)CN(c3cc(F)c(C4CCC(=O)NC4=O)c(F)c3)C2)C1)C1CC1 (centres unmarked) [Compound 11, 1-(cyclopropyl(methyl)carbamoyl)azetidin-3-yl (1-(4-(2,6-dioxopiperidin-3-yl)-3,5-difluorophenyl)-3-(trifluoromethyl)azetidin-3-yl)carbamate]
Ki (CRBN-DDB1): ≤ 100 nM | Dmax (CDK2): 50 to 80%

CN(C(=O)N1CC(OC(=O)NC2(C)CN(c3cc(F)c(C4CCC(=O)NC4=O)c(F)c3)C2)C1)C1CC1 (centres unmarked) [Compound 12, 1-(cyclopropyl(methyl)carbamoyl)azetidin-3-yl (1-(4-(2,6-dioxopiperidin-3-yl)-3,5-difluorophenyl)-3-methylazetidin-3-yl)carbamate]
Ki (CRBN-DDB1): ≤ 100 nM | Dmax (CDK2): 50 to 80%

COc1ccc(N(C)C(=O)N2CC(OC(=O)NC3CN(c4cc(F)c(C5CCC(=O)NC5=O)c(F)c4)C3)C2)cc1 (centres unmarked) [Compound 13, 1-((4-methoxyphenyl)(methyl)carbamoyl)azetidin-3-yl(1-(4-(2,6-dioxopiperidin-3-yl)-3,5-difluorophenyl)azetidin-3-yl)carbamate]
Ki (CRBN-DDB1): ≤ 100 nM | Dmax (CDK2): 50 to 80%

CN(C)C(=O)N1CC(OC(=O)NC2(C)CN(c3cc(F)c(C4CCC(=O)NC4=O)c(F)c3)C2)C1 (centres unmarked) [Compound 14, 1-(dimethylcarbamoyl)azetidin-3-yl (1-(4-(2,6-dioxopiperidin-3-yl)-3,5-difluorophenyl)-3-methylazetidin-3-yl)carbamate]
Ki (CRBN-DDB1): ≤ 100 nM | Dmax (CDK2): 10 to 50%

Cc1cc(N2CC(NC(=O)OC3CN(C(=O)N(C)C4CC4)C3)C2)cc(F)c1C1CCC(=O)NC1=O (centres unmarked) [Compound 15, 1-(cyclopropyl(methyl)carbamoyl)azetidin-3-yl (1-(4-(2,6-dioxopiperidin-3-yl)-3-fluoro-5-methylphenyl)azetidin-3-yl)carbamate]
Ki (CRBN-DDB1): ≤ 100 nM | Dmax (CDK2): 50 to 80%

CN(C(=O)N1CC[C@H](OC(=O)NC2CN(c3cc(F)c(C4CCC(=O)NC4=O)c(F)c3)C2)C1)C1CC1 (stereo partly drawn) [Compound 16, (S)-1-(cyclopropyl(methyl)carbamoyl)pyrrolidin-3-yl (1-(4-(2,6-dioxopiperidin-3-yl)-3,5-difluorophenyl)azetidin-3-yl)carbamate]
Ki (CRBN-DDB1): ≤ 100 nM | Dmax (CDK2): 10 to 50%

CN(C(=O)N1CC(OC(=O)NC2CN(c3cc(F)c(C4CCC(=O)NC4=O)c(F)c3)C2)C1)c1ccccc1 (centres unmarked) [Compound 17, 1-(methyl(phenyl)carbamoyl)azetidin-3-yl (1-(4-(2,6-dioxopiperidin-3-yl)-3,5-difluorophenyl)azetidin-3-yl)carbamate]
Ki (CRBN-DDB1): ≤ 100 nM | Dmax (CDK2): 50 to 80%

CN(C)C(=O)N1CC[C@@H](OC(=O)NC2CN(c3cc(F)c(C4CCC(=O)NC4=O)c(F)c3)C2)C1 (stereo partly drawn) [Compound 18, (R)-1-(dimethylcarbamoyl)pyrrolidin-3-yl (1-(4-(2,6-dioxopiperidin-3-yl)-3,5-difluorophenyl)azetidin-3-yl)carbamate]
Ki (CRBN-DDB1): ≤ 100 nM | Dmax (CDK2): 10 to 50%

O=C1CCC(c2c(F)cc(N3CC(NC(=O)OC4CN(C(=O)N5CCCC5)C4)C3)cc2F)C(=O)N1 (centres unmarked) [Compound 32]
Dmax (CDK2): 50 to 80%

N#Cc1c(N2CC(NC(=O)OCC3CC4(CCC4)C3)C2)ccc(C2CCC(=O)NC2=O)c1Cl (centres unmarked) [Compound 85, spiro[3.3]heptan-2-ylmethyl (1-(3-chloro-2-cyano-4-(2,6-dioxopiperidin-3-yl)phenyl)azetidin-3-yl)carbamate]
Dmax (CDK2): 50 to 80%

Cc1ccc(C)c(N(C)C(=O)C23CC(OC(=O)NC4CN(c5cc(F)c(C6CCC(=O)NC6=O)c(F)c5)C4)(C2)C3)c1 (centres unmarked) [Compound 111]
Dmax (CDK2): 50 to 80%

[2H]C([2H])([2H])N(C(=O)N1CC(OC(=O)NC2CN(c3cc(F)c(C4CCC(=O)NC4=O)c(F)c3)C2)C1)c1ccc(C)cc1 (centres unmarked) [Compound 118, 1-((methyl-d3)(p-tolyl)carbamoyl)azetidin-3-yl (1-(4-(2,6-dioxopiperidin-3-yl)-3,5-difluorophenyl)azetidin-3-yl)carbamate]
Ki (CRBN-DDB1): ≤ 100 nM

[2H]C([2H])([2H])N(C(=O)N1CC(OC(=O)NC2CN(c3cc(F)c(C4CCC(=O)NC4=O)c(F)c3)C2)C1)c1ccc(Cl)cc1 (centres unmarked) [Compound 119, 1-((4-chlorophenyl)(methyl-d3)carbamoyl)azetidin-3-yl (1-(4-(2,6-dioxopiperidin-3-yl)-3,5-difluorophenyl)azetidin-3-yl)carbamate]
Ki (CRBN-DDB1): ≤ 100 nM
